Results from US9918963B2, “Therapeutic agent for disease based on inhibitory effect of macrophage migration inhibitory factor” (TOYAMA CHEMICAL CO., LTD., priority 2013, dated 2018).
One block for each compound: values may come before it.

Experiments:
[1] = test system: chronic constriction nerve injury model rat; test: Chronic constriction nerve injury model rat, mechanical allodynia by von Frey test; type: in vivo; settings: von Frey test, left hind paw
Experimental: This test was performed by referring to a method of Bennett et al. (Pain, 1988, vol. 33, pp. 87-107). Compound A was used as a test substance, and celecoxib, one of NSAIDs, was used as a reference substance. The compound A was administered at a dose of 30 mg/kg (Compound A group). The celecoxib was administered at a dose of 30 mg/kg (celecoxib group). To a control group, a 0.5% methyl cellulose aqueous solution used as a vehicle was administered. Under anesthetic with Somnopentyl (manufactured by Kyoritsu Seiyaku Corporation, about 52 mg/kg, intraperitoneal administration), nerve constriction operation was performed on the left sciatic nerves of Sprague-Dawley male rats (7 weeks old). Briefly, a left femoral region of each rat was dissected, the sciatic nerve was detached from tissues around, and the nerve was loosely constricted with a 4-0 silk suture (manufactured by Eticon Inc., surgical silk) for having narrow parts in four positions at intervals of about 1 mm. The muscular layer and the skin were respectively sutured, and the operation region was disinfected. The vehicle, the test substance or the reference substance was orally administered once a day continuously for 14 days from the 16th day after the operation. From the start of the administration, pain sense (mechanical allodynia) of the footpad of left hind paw was evaluated by von Frey test. […] The evaluation of the pain sense was expressed as an average of pain threshold values.

MIF = target: T1, MIF (Homo sapiens, UniProt P14174); test: Inhibition of MIF tautomerase activity (L-dopachrome methyl ester, absorbance at 475 nm); type: biochemical; settings: 30 μmol/L test substance, 10 to 50 nmol/L MIF, pH 6.2, control = 100%; read-out: Inhibition Rate of Tautomerase Reaction
T1 construct: (catalogue number not given); host or cells: E. coli BL21 Star (DE3)
T1 sequence (P14174 2-115 limits assumed): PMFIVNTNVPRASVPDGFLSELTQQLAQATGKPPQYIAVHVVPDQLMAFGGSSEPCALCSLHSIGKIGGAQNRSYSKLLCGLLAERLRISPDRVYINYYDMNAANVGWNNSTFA
Experimental: The inhibitory effect of test substances against tautomerase activity of MIF was evaluated by referring to a method of Healy et al. (Cancer Epidemiology Biomarkers and Prevention, 2011, vol. 20, pp. 1516-1523).
In this method, tautomeric reaction from L-3,4-dihydroxyphenylalanine methyl ester (L-dopachrome methyl ester, colored) to 5,6-hydroxyindole-2-carboxylic acid methyl ester (no color) is measured as a change in absorbance at 475 nm.
As an enzyme source, recombinant MIF manufactured by Abcam Plc. or MIF produced and purified by referring to a method of Lubetsky et al. (The Journal of Biological Chemistry, 2002, vol. 277, pp. 24976-24982) was used. A purification method for MIF is described below.
The pET15b vector (Merck) into which the full length gene sequence of MIF had been inserted was transfected E. coli BL21 Star (DE3) strain (Life Technologies Corporation). […] The E. coli were resuspended in buffer (pH 7.5) containing 20 mmol/L Tris (Wako Pure Chemical Industries, Ltd.), 20 mmol/L sodium chloride (Wako Pure Chemical Industries, Ltd.) and 1 mmol/L dithiothreitol (Wako Pure Chemical Industries, Ltd.), and the resultant was subjected to ultrasonic lysis and centrifugation at 15000 rpm for 10 minutes. The thus obtained supernatant was filtered using a 0.20 μm filter, and was allowed to pass through HiTrap Q HP and HiTrap SP HP columns (GE Healthcare Japan Corporation), so as to separate flow-through fractions each of 5 mL. Each of 10 μL of the separated fractions was subjected to the electrophoresis using 5 to 20% polyacrylamide gel (Wako Pure Chemical Industries, Ltd.), and all proteins were stained with Coomassie brilliant blue reagent (Bio-Rad Laboratories, Inc.). On the basis of results thus obtained, a fraction containing a large amount of MIF and containing least amount of other proteins was selected as purified MIF. The concentration of MIF protein was measured by using BCA protein assay reagent (Thermo Fisher Scientific K. K.).
Inhibitory effect of each test substance against MIF tautomerase activity was measured as follows.
A final concentration of 10 to 50 nmol/L of MIF and a final concentration of 30 μmol/L of each test substance or 0.5% dimethyl sulfoxide (Wako Pure Chemical Industries, Ltd.) as a control were added to buffer (pH 6.2) containing 50 mmol/L Bis-Tris (Dojindo Laboratories) and 1 mmol/L EDTA (Dojindo Laboratories), and reaction was performed at room temperature for 15 minutes to give a reaction solution 1.
On the other hand, 1/20 volume of 12 mmol/L L-3,4-dihydroxyphenylalanine methyl ester (Sigma Aldrich) and 1/20 volume of 24 mmol/L sodium periodate (Wako Pure Chemical Industries, Ltd.) were added to buffer having the same composition as that used for obtaining the reaction solution 1, to give a reaction solution 2.
Next, the reaction solution 1 and the reaction solution 2 were mixed, and the temporal change of absorbance at 475 nm of the obtained mixture was immediately measured.
The difference of the absorbencies between the at about 1 minute after the measurement start and at about 5 minutes after was obtained. Assuming that the absorbance change of the control is 100%, an inhibiting rate of the tautomerase reaction in presence of=each test substance was calculated.

[2] = test system: chronic relapsing EAE model of mouse; type: in vivo
Experimental: Compound A was selected as a test substance, and salazosulfapyridine (hereinafter referred to as SASP) was selected as a comparative control agent. Compound A was administered at a dose of 30 mg/kg (Compound A group). SASP was administered at a dose of 300 mg/kg (SASP group). In control group and normal group (no induction treatment group), 0.5% methyl cellulose aqueous solution used as vehicle of the administration liquid was administered.
The chronic relapsing EAE was induced in SJL/J female mice by immunization with partial PLP peptide. Briefly, an emulsion was prepared by mixing equivalent volumes of phosphate buffer saline containing 1 mg/mL of the peptide corresponding to residues 139-151 of the PLP and Freund's […] adjuvant containing 4 mg/mL of killed M. Tuberculosis H37Ra. The emulsion was intradermically injected (50 μg of PLP per mouse) into four positions on the back for immunization, and additionally, on the day of the immunization and two days after, pertussis toxin was intraperitoneally injected in each amount of 150 ng per mouse, twice in total. The vehicle, the test substance or the reference article was orally administered continuously for 44 days once daily from the day of the immunization.
In the present experiment, paralysis was developed to reach a peak on the 14th to 16th day after the immunization, and the symptom remitted once, but relapsed to reach a peak on the 38th day.
The symptom was evaluated in accordance with a report of Weaver et al. (FASEB Journal, 2005, vol. 19, p. 1668). Briefly, paralysis of all of the four limbs and the tail was evaluated by scoring in 4 ranks of scores of 0 to 3 and in 3 ranks of scores of 0 to 2, respectively, and the sum of the scores was determined as EAE score (the maximum score 14).
Incidence rates (the number of mice having developed the disease/the number of used mice) and the average of EAE score of each group were measured at the period of initial onset (on the 15th day after the immunization) and at the period of relapse (on the 38th day after the immunization).

SMILES: Cc1ccc(-c2cc(C(F)(F)F)nn2-c2ccc(S(N)(=O)=O)cc2)cc1 [Celecoxib, celecoxib, reference compound]
Average of pain thresholds, 30th day after operation ([1]; 30 mg/kg orally once a day for 14 days from the 16th day after operation): 3.1 g
Average of pain thresholds, 15th day after operation ([1]; day before start of administration, 30 mg/kg groups): 2.5 g

SMILES: CS(=O)(=O)Nc1cc2occ(N)c(=O)c2cc1Oc1ccccc1 [Compound B, N-(3-amino-4-oxo-6-phenoxy-4H-1-benzopyran-7-yl)methanesulfonamide]
inhibition at 30 µM (MIF): 50 to 75%

SMILES: CC(=O)Nc1coc2cc(NS(C)(=O)=O)c(Oc3ccccc3)cc2c1=O [Compound C, N-[7-[(methylsulfonyl)amino]-4-oxo-6-phenoxy-4H-1-benzopyran-3-yl]acetamide]
inhibition at 30 µM (MIF): 50 to 75%

SMILES: CS(=O)(=O)Nc1cc2occc(=O)c2cc1Oc1ccccc1 [Compound D, N-(4-oxo-6-phenoxy-4H-1-benzopyran-7-yl)methanesulfonamide]
inhibition at 30 µM (MIF): 50 to 75%

SMILES: O=C(O)c1cc(/N=N/c2ccc(S(=O)(=O)Nc3ccccn3)cc2)ccc1O [SASP, salazosulfapyridine]
Animals died, by period of initial onset ([2]; 15th day after immunization, 8 animals, 300 mg/kg orally once daily): (1 animal
EAE score, period of initial onset ([2]; 15th day after immunization, average, maximum score 14, oral once daily (Compound A 30 mg/kg, SASP 300 mg/kg)): 5.5
Incidence rate, period of initial onset ([2]; 15th day after immunization, mice having developed the disease/mice used, oral once daily from immunization (Compound A 30 mg/kg, SASP 300 mg/kg)): 7/7
Animals died, by period of relapse ([2]; 38th day after immunization, 8 animals, 300 mg/kg orally once daily): (2 animals
EAE score, period of relapse ([2]; 38th day after immunization, average, maximum score 14, oral once daily (Compound A 30 mg/kg, SASP 300 mg/kg)): 2.0
Incidence rate, period of relapse ([2]; 38th day after immunization, mice having developed the disease/mice used, oral once daily (Compound A 30 mg/kg, SASP 300 mg/kg)): 6/6
Effect on incidence rate / EAE score, paralysis of chronic relapsing EAE ([2]; oral once daily for 44 days from immunization (Compound A 30 mg/kg, SASP 300 mg/kg)): neither the incidence rate nor the EAE score was lowered

Next, values leading:

inhibition at 30 µM (MIF): ≥ 75%
SMILES: CS(=O)(=O)Nc1cc2oc(C(N)=O)cc(=O)c2cc1Oc1ccccc1 [Compound E, 7-[(methylsulfonyl)amino]-4-oxo-6-phenoxy-4H-1-benzopyran-2-carboxamide]

inhibition at 30 µM (MIF): ≥ 75%
SMILES: CC(=O)Nc1cc(=O)c2cc(Oc3ccccc3)c(NS(C)(=O)=O)cc2o1 [Compound F, N-[7-[(methylsulfonyl)amino]-4-oxo-6-phenoxy-4H-1-benzopyran-2-yl]acetamide]

inhibition at 30 µM (MIF): 50 to 75%
SMILES: CS(=O)(=O)Nc1cc2occ(C(N)=O)c(=O)c2cc1Oc1ccccc1 [Compound G, 7-[(methylsulfonyl)amino]-4-oxo-6-phenoxy-4H-1-benzopyran-3-carboxamide]

inhibition at 30 µM (MIF): ≥ 75%
SMILES: CCS(=O)(=O)Nc1cc2occ(NC=O)c(=O)c2cc1Oc1ccccc1 [Compound H, N-[7-[(ethylsulfonyl)amino]-4-oxo-6-phenoxy-4H-1-benzopyran-3-yl]formamide]

inhibition at 30 µM (MIF): ≥ 75%
SMILES: CS(=O)(=O)Nc1cc2oc(-c3ccccc3)cc(=O)c2cc1Oc1ccccc1 [Compound I, N-(4-oxo-6-phenoxy-2-phenyl-4H-1-benzopyran-7-yl)methanesulfonamide]
